Results taken from article PMC11859928, “Design, Synthesis, and Antiproliferative Activity of Novel Indole/1,2,4-Triazole Hybrids as Tubulin Polymerization Inhibitors” (Pharmaceuticals, 2025).

Key:
Experiment in all cases: NCI one-dose assay
Assay type in all cases: cell-based
NCI-H322M = settings: Homo sapiens, Non-small cell lung cancer, read-out: Cell growth inhibition %
OVCAR-4 = settings: Homo sapiens, OVCAR-4, Ovarian cancer, read-out: Cell growth inhibition %
MDA-MB-468 = settings: Homo sapiens, MDA-MB-468, Breast cancer, read-out: Cell growth inhibition %
NCI-H522 = settings: Homo sapiens, NCI-H522, Non-small cell lung cancer, read-out: Cell growth inhibition %
MDA-MB-231/ATCC = settings: Homo sapiens, Breast cancer, read-out: Cell growth inhibition %
HCC-2998 = settings: Homo sapiens, HCC-2998, Colon cancer, read-out: Cell growth inhibition %
SK-OV-3 = settings: Homo sapiens, SK-OV-3, Ovarian cancer, read-out: Cell growth inhibition %
SNB-75 = settings: Homo sapiens, SNB-75, CNS cancer, read-out: Cell growth inhibition %
SK-MEL-5 = settings: Homo sapiens, SK-MEL-5, Melanoma, read-out: Cell growth inhibition %
A549/ATCC = settings: Homo sapiens, Non-small cell lung cancer, read-out: Cell growth inhibition %
MDA-MB-435 = settings: Homo sapiens, MDA-MB-435, Melanoma, read-out: Cell growth inhibition %
SR = settings: Homo sapiens, Leukemia, read-out: Cell growth inhibition %
NCI-H460 = settings: Homo sapiens, NCI-H460, Non-small cell lung cancer, read-out: Cell growth inhibition %
CAKI-1 = settings: Homo sapiens, CAKI-1, Renal cancer, read-out: Cell growth inhibition %
HL-60(TB) = settings: Homo sapiens, Leukemia, read-out: Cell growth inhibition %
T-47D = settings: Homo sapiens, T47D, Breast cancer, read-out: Cell growth inhibition %
NCI-H226 = settings: Homo sapiens, NCI-H226, Non-small cell lung cancer, read-out: Cell growth inhibition %
HS 578 T = settings: Homo sapiens, Breast cancer, read-out: Cell growth inhibition %
M14 = settings: Homo sapiens, M14, Melanoma, read-out: Cell growth inhibition %
HT29 = settings: Homo sapiens, HT-29, HT29, Colon cancer, read-out: Cell growth inhibition %
SF-539 = settings: Homo sapiens, SF-539, CNS cancer, read-out: Cell growth inhibition %
U251 = settings: Homo sapiens, U-251, U251, CNS cancer, read-out: Cell growth inhibition %
MCF7 = settings: Homo sapiens, MCF7, Breast cancer, read-out: Cell growth inhibition %
RPMI-8226 = settings: Homo sapiens, RPMI-8226, Leukemia, read-out: Cell growth inhibition %
SF-295 = settings: Homo sapiens, SF-295, CNS cancer, read-out: Cell growth inhibition %
UACC-62 = settings: Homo sapiens, UACC-62, Melanoma, read-out: Cell growth inhibition %
UACC-257 = settings: Homo sapiens, UACC-257, Melanoma, read-out: Cell growth inhibition %
TK-10 = settings: Homo sapiens, TK-10, Renal cancer, read-out: Cell growth inhibition %
MALME-3M = settings: Homo sapiens, Melanoma, read-out: Cell growth inhibition %
SK-MEL-28 = settings: Homo sapiens, SK-MEL-28, Melanoma, read-out: Cell growth inhibition %
KM12 = settings: Homo sapiens, KM12, Colon cancer, read-out: Cell growth inhibition %
BT-549 = settings: Homo sapiens, BT-549, Breast cancer, read-out: Cell growth inhibition %
K-562 = settings: Homo sapiens, K562, K-562, Leukemia, read-out: Cell growth inhibition %
OVCAR-8 = settings: Homo sapiens, OVCAR-8, Ovarian cancer, read-out: Cell growth inhibition %
IGROV1 = settings: Homo sapiens, IGROV-1, IGROV1, Ovarian cancer, read-out: Cell growth inhibition %
ACHN = settings: Homo sapiens, Renal cancer, read-out: Cell growth inhibition %

SMILES	inhibition at 10 µM (NCI-H322M) [%]	inhibition at 10 µM (OVCAR-4) [%]	inhibition at 10 µM (MDA-MB-468) [%]	inhibition at 10 µM (NCI-H522) [%]	inhibition at 10 µM (MDA-MB-231/ATCC) [%]	inhibition at 10 µM (HCC-2998) [%]	inhibition at 10 µM (SK-OV-3) [%]	inhibition at 10 µM (SNB-75) [%]	inhibition at 10 µM (SK-MEL-5) [%]	inhibition at 10 µM (A549/ATCC) [%]	inhibition at 10 µM (MDA-MB-435) [%]	inhibition at 10 µM (SR) [%]	inhibition at 10 µM (NCI-H460) [%]	inhibition at 10 µM (CAKI-1) [%]	inhibition at 10 µM (HL-60(TB)) [%]	inhibition at 10 µM (T-47D) [%]	inhibition at 10 µM (NCI-H226) [%]	inhibition at 10 µM (HS 578 T) [%]	inhibition at 10 µM (M14) [%]	inhibition at 10 µM (HT29) [%]	further results
C=CCn1c(SCC(=O)c2ccc(Cl)cc2)nnc1-c1c[nH]c2ccccc12 [Compound 6e, 2-((4-Allyl-5-(1H-indol-3-yl)-4H-1,2,4-triazol-3-yl)thio)-1-(4-chlorophenyl)ethenone]	-2.47	-8	8	7.55	8.19	-15.6	-20.6	-0.53	3.94	3.63	-5.05	12.2	-3.47	7.04	10.8	3.25	10.3	-3.65	6.76	-7.4	inhibition at 10 µM (SF-539): 0.21%; inhibition at 10 µM (U251): 3.75%; inhibition at 10 µM (MCF7): 7.08%; inhibition at 10 µM (RPMI-8226): 7.71%; inhibition at 10 µM (SF-295): 3.57%; inhibition at 10 µM (UACC-62): 14.7%; inhibition at 10 µM (UACC-257): 2.2%; inhibition at 10 µM (TK-10): -24.3%; inhibition at 10 µM (MALME-3M): 9.28%; inhibition at 10 µM (SK-MEL-28): -10.1%; inhibition at 10 µM (KM12): -3.89%; inhibition at 10 µM (BT-549): -0.26%; inhibition at 10 µM (K-562): 10.1%; inhibition at 10 µM (OVCAR-8): 9.77%; inhibition at 10 µM (IGROV1): 7.38%; inhibition at 10 µM (ACHN): 7.39%
O/N=C(\CSc1nnc(-c2c[nH]c3ccccc23)n1-c1ccccc1)c1ccccc1 [Compound 7f, (Z)-2-((5-(1H-Indol-3-yl)-4-phenyl-4H-1,2,4-triazol-3-yl)thio)-1-phenylethanone Oxime]	35	62.2	64.6	46.2	31.3	43.3	30.6	23.8	84.1	46.9	54.9	43.8	66	48.9	75.3	80.2	56.7	33.3	54.2	50.7	inhibition at 10 µM (SF-539): 22.9%; inhibition at 10 µM (U251): 46.2%; inhibition at 10 µM (MCF7): 58.9%; inhibition at 10 µM (RPMI-8226): 68.1%; inhibition at 10 µM (SF-295): 60.8%; inhibition at 10 µM (UACC-62): 59.2%; inhibition at 10 µM (UACC-257): 20.1%; inhibition at 10 µM (TK-10): 34%; inhibition at 10 µM (MALME-3M): 23.9%; inhibition at 10 µM (SK-MEL-28): 45.5%; inhibition at 10 µM (KM12): 59.9%; inhibition at 10 µM (BT-549): 42.5%; inhibition at 10 µM (K-562): 67.6%; inhibition at 10 µM (OVCAR-8): 43.2%; inhibition at 10 µM (IGROV1): 41.8%; inhibition at 10 µM (ACHN): 58.4%
Cc1ccc(/C(CSc2nnc(-c3c[nH]c4ccccc34)n2-c2ccccc2)=N/O)cc1 [Compound 7h, (Z)-2-((5-(1H-Indol-3-yl)-4-phenyl-4H-1,2,4-triazol-3-yl)thio)-1-(p-tolyl)ethanone Oxime]	142	187	189	76.2	182	142	88.5	144	65.9	81.6	200	90.2	98	127	114	147	141	154	164	93.7	inhibition at 10 µM (SF-539): 89.9%; inhibition at 10 µM (U251): 89.6%; inhibition at 10 µM (MCF7): 155%; inhibition at 10 µM (RPMI-8226): 119%; inhibition at 10 µM (SF-295): 150%; inhibition at 10 µM (UACC-62): 153%; inhibition at 10 µM (UACC-257): 64.3%; inhibition at 10 µM (TK-10): 165%; inhibition at 10 µM (MALME-3M): 83.3%; inhibition at 10 µM (SK-MEL-28): 37.5%; inhibition at 10 µM (KM12): 49.8%; inhibition at 10 µM (BT-549): 176%; inhibition at 10 µM (K-562): 98.4%; inhibition at 10 µM (OVCAR-8): 128%; inhibition at 10 µM (IGROV1): 162%; inhibition at 10 µM (ACHN): 162%
